In patent US20260297081A1, “COMPOUNDS AND METHODS OF TREATING CANCERS” (Cullgen Inc., priority 2023, published 2026) one finds IC50 and inhibition data, which are given here for 15 molecules.

Structures are written as SMILES.

Holding throughout (type): cell-based
Assay [1] has as its system Calu-1 cells. Put plainly: Anti-proliferation (viability) of NSCLC Calu-1 cells, 3 days (Table 7, FIG. 2B). The note with it: Homo sapiens, 72 h; Calu-1 cells, 3 days, 10-point serial dilution; read-out: GI IC50 in Calu-1. As for the experimental part: To evaluate anti-proliferation activities of heterobifunctional compounds, NSCLC Calu-1 or ER+ breast cancer T47D cells were treated with selected heterobifunctional compounds following a 10-point serial dilution for 3 or 6 days, respectively.
To verify that heterobifunctional compound-mediated degradation is dependent on the binding to CDK4-cyclin D complex, a negative control compound, CPD-143, which is derived from active heterobifunctional compound CPD-10 was designed. CPD-143 bears the same DDB1 ligand and linker as CPD-10 but with a modified warhead to impair the binding of the control compound to CDK4.

Assay [2] has as its system MCF7 cells. Nature of the assay: Anti-proliferation (viability) of MCF7 cells (Table 7, FIG. 2B). The note with it: Homo sapiens, MCF7, MCF7 cells, 3-6 days, 10-point serial dilution; read-out: GI IC50 in MCF-7.
Assay [3] addresses CDK4 (Homo sapiens, UniProt P11802+Q16531). Put plainly: CDK4 percentage degradation in Calu-1 cells (Table 6). Also noted: Cells that express cyclin D1-3 and CDK4/6 proteins were treated with heterobifunctional compounds; endogenous in cells; host or cells: Calu-1. Conditions: 16 hours. In short, it runs like this:
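Calu-1 cells exposed to heterobifunctional compounds at 40 nM or 200 nM for 16 h. Cyclin D1 and CDK4 levels measured by Western blot of RIPA lysates (BCA-normalised loading), bands quantified by densitometry and expressed as percentage degradation.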

CDK4, sequence (P11802 2-303 limits assumed): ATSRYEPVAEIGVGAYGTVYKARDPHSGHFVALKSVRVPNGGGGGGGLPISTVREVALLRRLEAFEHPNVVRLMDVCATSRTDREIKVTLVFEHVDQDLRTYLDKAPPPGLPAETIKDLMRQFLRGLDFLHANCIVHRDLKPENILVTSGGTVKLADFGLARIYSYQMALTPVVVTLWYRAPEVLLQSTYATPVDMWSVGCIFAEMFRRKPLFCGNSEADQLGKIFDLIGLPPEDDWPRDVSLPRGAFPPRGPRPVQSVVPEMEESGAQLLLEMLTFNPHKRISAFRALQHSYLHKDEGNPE
CDK4, sequence (P24385 whole entry partner): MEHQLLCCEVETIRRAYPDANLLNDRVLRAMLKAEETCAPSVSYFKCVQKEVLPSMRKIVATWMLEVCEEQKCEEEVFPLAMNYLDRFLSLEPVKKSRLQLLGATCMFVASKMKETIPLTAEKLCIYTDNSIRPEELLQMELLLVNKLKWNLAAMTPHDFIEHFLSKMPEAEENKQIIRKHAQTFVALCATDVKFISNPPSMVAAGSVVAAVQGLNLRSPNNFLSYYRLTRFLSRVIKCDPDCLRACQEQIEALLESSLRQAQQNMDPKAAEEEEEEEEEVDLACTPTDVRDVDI
CDK4, sequence (Q16531 2-1140 limits assumed): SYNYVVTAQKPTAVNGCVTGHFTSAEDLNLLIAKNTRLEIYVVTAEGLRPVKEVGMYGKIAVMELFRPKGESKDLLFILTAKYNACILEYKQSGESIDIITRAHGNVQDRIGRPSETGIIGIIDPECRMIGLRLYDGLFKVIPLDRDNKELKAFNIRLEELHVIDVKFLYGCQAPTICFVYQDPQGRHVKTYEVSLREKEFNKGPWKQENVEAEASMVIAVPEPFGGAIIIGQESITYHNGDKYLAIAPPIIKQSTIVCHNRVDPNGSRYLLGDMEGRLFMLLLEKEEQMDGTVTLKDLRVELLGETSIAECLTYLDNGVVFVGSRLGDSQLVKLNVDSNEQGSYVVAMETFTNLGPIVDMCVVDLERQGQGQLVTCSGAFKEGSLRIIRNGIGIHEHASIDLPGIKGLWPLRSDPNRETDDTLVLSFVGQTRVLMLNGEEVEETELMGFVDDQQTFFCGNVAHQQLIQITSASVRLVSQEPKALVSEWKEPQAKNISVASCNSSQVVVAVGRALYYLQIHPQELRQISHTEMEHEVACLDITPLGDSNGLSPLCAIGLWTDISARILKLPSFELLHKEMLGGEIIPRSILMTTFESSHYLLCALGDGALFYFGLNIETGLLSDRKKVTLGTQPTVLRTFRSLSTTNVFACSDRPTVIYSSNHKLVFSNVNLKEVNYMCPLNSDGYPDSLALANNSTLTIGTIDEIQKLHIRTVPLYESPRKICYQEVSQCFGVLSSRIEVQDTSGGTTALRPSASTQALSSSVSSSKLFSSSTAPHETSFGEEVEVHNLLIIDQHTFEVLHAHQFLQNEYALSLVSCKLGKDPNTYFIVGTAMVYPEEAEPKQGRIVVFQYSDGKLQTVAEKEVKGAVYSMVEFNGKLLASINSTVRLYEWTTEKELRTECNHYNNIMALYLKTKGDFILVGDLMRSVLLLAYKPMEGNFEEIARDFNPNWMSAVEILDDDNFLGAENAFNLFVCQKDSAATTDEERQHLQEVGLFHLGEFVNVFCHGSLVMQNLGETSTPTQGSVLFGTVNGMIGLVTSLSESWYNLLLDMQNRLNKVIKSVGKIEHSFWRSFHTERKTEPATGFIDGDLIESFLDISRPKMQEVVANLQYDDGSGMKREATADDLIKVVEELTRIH

A word on the IC50: it is the concentration needed to halve the response being measured. Consider `CC(=O)c1c(C)c2cnc(Nc3ccc(N4CC5(CN(CCC(=O)N6CC7(CC(Nc8nc(NC(C)C)ccc8C(=O)Nc8ccc(N(C)C)nn8)C7)C6)C5)C4)cn3)nc2n(C2CCCC2)c1=O` [CPD-455, 2-((2-(3-(6-(6-((6-acetyl-8-cyclopentyl-5-methyl-7-oxo-7,8-dihydropyrido[2,3-d]pyrimidin-2-yl)amino)pyridin-3-yl)-2,6-diazaspiro[3.3]heptan-2-yl)propanoyl)-2-azaspiro[3.3]heptan-6-yl)amino)-N-(6-(dimethylamino)pyridazin-3-yl)-6-(isopropylamino)nicotinamide], for which the IC50 is at most 10 nM in assay [1] and under 50 nM in assay [2].
The like results for `CC(=O)c1c(C)c2cnc(Nc3ccc(N4CCN(C5CCN(C(=O)C6CCC7(CC(Nc8nc(NC(C)C)ccc8C(=O)Nc8ccc(N(C)C)nn8)C7)C6)C5)CC4)cn3)nc2n(C2CCCC2)c1=O` (stereo not drawn) [CPD-556, 2-((6-(3-(4-(6-((6-acetyl-8-cyclopentyl-5-methyl-7-oxo-7,8-dihydropyrido[2,3-d]pyrimidin-2-yl)amino)pyridin-3-yl)piperazin-1-yl)pyrrolidine-1-carbonyl)spiro[3.4]octan-2-yl)amino)-N-(6-(dimethylamino)pyridazin-3-yl)-6-(isopropylamino)nicotinamide] were, in that order, at most 10 nM and under 50 nM.
On to `CC(=O)c1c(C)c2cnc(Nc3ccc(CN4CCN(C(=O)CN5CCC(Nc6nc(NC(C)C)ccc6C(=O)Nc6ccc(N(C)C)nn6)CC5)CC4)cn3)nc2n(C2CCCC2)c1=O` [CPD-541, 2-((1-(2-(4-((6-((6-acetyl-8-cyclopentyl-5-methyl-7-oxo-7,8-dihydropyrido[2,3-d]pyrimidin-2-yl)amino)pyridin-3-yl)methyl)piperazin-1-yl)-2-oxoethyl)piperidin-4-yl)amino)-N-(6-(dimethylamino)pyridazin-3-yl)-6-(isopropylamino)nicotinamide], for which the IC50 in assay [1] was at most 10 nM; in assay [2], under 50 nM.
For `[2H]C([2H])([2H])Nc1ccc(C(=O)Nc2ccc(N(C)C)nn2)c(NC2CC3(C2)CN(C(=O)CN(C)C2CCN(c4ccc(Nc5ncc6c(C)c(C(C)=O)c(=O)n(C7CCCC7)c6n5)nc4)CC2)C3)n1` [CPD-464, 2-((2-(N-(1-(6-((6-acetyl-8-cyclopentyl-5-methyl-7-oxo-7,8-dihydropyrido[2,3-d]pyrimidin-2-yl)amino)pyridin-3-yl)piperidin-4-yl)-N-methylglycyl)-2-azaspiro[3.3]heptan-6-yl)amino)-N-(6-(dimethylamino)pyridazin-3-yl)-6-((methyl-d3)amino)nicotinamide], in that order: at most 10 nM and under 50 nM.
The like results for `CC(=O)c1c(C)c2cnc(Nc3ccc(N4CCN(CC(=O)NC5CC(Nc6nc(NC(C)C)ccc6C(=O)Nc6ccc(N(C)C)nn6)C5)CC4)cn3)nc2n(C2CCCC2)c1=O` (stereo not drawn) [CPD-280, 2-((3-(2-(4-(6-((6-acetyl-8-cyclopentyl-5-methyl-7-oxo-7,8-dihydropyrido[2,3-d]pyrimidin-2-yl)amino)pyridin-3-yl)piperazin-1-yl)acetamido)cyclobutyl)amino)-N-(6-(dimethylamino)pyridazin-3-yl)-6-(isopropylamino)nicotinamide] were, in that order, at most 10 nM and 50 to 100 nM.
Regarding `CC(=O)c1c(C)c2cnc(Nc3ccc(N4CCC(N5CCC[C@H]5C(=O)NC5CC6(C5)CC(Nc5nc(NC(C)C)ccc5C(=O)Nc5ccc(N(C)C)nn5)C6)CC4)cn3)nc2n(C2CCCC2)c1=O` (stereo partly drawn) [CPD-543, (S)-2-((6-(1-(1-(6-((6-acetyl-8-cyclopentyl-5-methyl-7-oxo-7,8-dihydropyrido[2,3-d]pyrimidin-2-yl)amino)pyridin-3-yl)piperidin-4-yl)pyrrolidine-2-carboxamido)spiro[3.3]heptan-2-yl)amino)-N-(6-(dimethylamino)pyridazin-3-yl)-6-(isopropylamino)nicotinamide], the IC50 in assay [1] is at most 10 nM; in assay [2], under 50 nM.
For `COc1cccc(NC(=O)c2ccc(NC(C)C)nc2NC2CCN(C(=O)CN3CCN(Cc4ccc(Nc5ncc6c(C)c(C(C)=O)c(=O)n(C7CCCC7)c6n5)nc4)CC3)CC2)n1` [CPD-533], in that order: at most 10 nM and 50 to 100 nM.
As to `CC(=O)c1c(C)c2cnc(Nc3ccc(N4CCC5(CCN(CC(=O)NC67CC(Nc8nc(NC(C)C)ccc8C(=O)Nc8ccc(N(C)C)nn8)(C6)C7)C5)C4)cn3)nc2n(C2CCCC2)c1=O` (stereo not drawn) [CPD-496, 2-((3-(2-(7-(6-((6-acetyl-8-cyclopentyl-5-methyl-7-oxo-7,8-dihydropyrido[2,3-d]pyrimidin-2-yl)amino)pyridin-3-yl)-2,7-diazaspiro[4.4]nonan-2-yl)acetamido)bicyclo[1.1.1]pentan-1-yl)amino)-N-(6-(dimethylamino)pyridazin-3-yl)-6-(isopropylamino)nicotinamide], the IC50 in assay [1] is at most 10 nM.
On the same count and under the same terms, the figure for `CC(=O)c1c(C)c2cnc(Nc3ccc(CN4CCN(C5CCN(C(=O)C6CCC(Nc7nc(NC(C)C)ccc7C(=O)Nc7ccc(N(C)C)nn7)C6)C5)CC4)cn3)nc2n(C2CCCC2)c1=O` (stereo not drawn) [CPD-511, 2-((3-(3-(4-((6-((6-acetyl-8-cyclopentyl-5-methyl-7-oxo-7,8-dihydropyrido[2,3-d]pyrimidin-2-yl)amino)pyridin-3-yl)methyl)piperazin-1-yl)pyrrolidine-1-carbonyl)cyclopentyl)amino)-N-(6-(dimethylamino)pyridazin-3-yl)-6-(isopropylamino)nicotinamide] is at least 50 nM.
The same measure, in the same setting: to `CC(=O)c1c(C)c2cnc(Nc3ccc(CN4CCN(C5CCN(C(=O)[C@H]6CC[C@H](Nc7nc(NC(C)C)ccc7C(=O)Nc7ccc(N(C)C)nn7)CC6)C5)CC4)cn3)nc2n(C2CCCC2)c1=O` (stereo partly drawn) [CPD-512, 2-((4-(3-(4-((6-((6-acetyl-8-cyclopentyl-5-methyl-7-oxo-7,8-dihydropyrido[2,3-d]pyrimidin-2-yl)amino)pyridin-3-yl)methyl)piperazin-1-yl)pyrrolidine-1-carbonyl)cyclohexyl)amino)-N-(6-(dimethylamino)pyridazin-3-yl)-6-(isopropylamino)nicotinamide] belongs 10 to 50 nM.
For orientation: inhibition means the relative decrease from the control value, in per cent. Higher therefore signals a strong effect. `CNc1ccc(C(=O)Nc2ccn(C)n2)c(NC2CC3(C2)CN(C(=O)CCN2CCN(c4ccc(Nc5ncc6c(C)c(C(C)=O)c(=O)n(C7CCCC7)c6n5)nc4)CC2)C3)n1` [CPD-144, 2-((2-(3-(4-(6-((6-acetyl-8-cyclopentyl-5-methyl-7-oxo-7,8-dihydropyrido[2,3-d]pyrimidin-2-yl)amino)pyridin-3-yl)piperazin-1-y)propanoyl)-2-azaspiro[3.3]heptan-6-yl)amino)-N-(1-methyl-1H-pyrazol-3-yl)-6-(methylamino)nicotinamide]: in assay [1], the IC50 lay in the range of 10 to 50 nM. Moreover, the inhibition at 0.04 µM in assay [3] (40 nM) was in the range of 50 to 80%. Moreover, in assay [3] (200 nM), the inhibition at 0.2 µM is over 80%.
On to `CC(=O)c1c(C)c2cnc(Nc3ccc(N4CCN(C5CCN(C(=O)C6(C)CCC(Nc7nc(NC(C)C)ccc7C(=O)Nc7ccc(N(C)C)nn7)CC6)C5)CC4)cn3)nc2n(C2CCCC2)c1=O` (stereo not drawn) [CPD-516, 2-((4-(3-(4-(6-((6-acetyl-8-cyclopentyl-5-methyl-7-oxo-7,8-dihydropyrido[2,3-d]pyrimidin-2-yl)amino)pyridin-3-yl)piperazin-1-yl)pyrrolidine-1-carbonyl)-4-methylcyclohexyl)amino)-N-(6-(dimethylamino)pyridazin-3-yl)-6-(isopropylamino)nicotinamide], for which, in assay [1], the IC50 lay within 10 to 50 nM.
The same measure, in the same setting: to `[2H]C([2H])([2H])Nc1ccc(C(=O)Nc2cn(C)c(C3CC3)n2)c(N[C@H]2CC[C@H](C(=O)N3CCC(N4CCN(c5ccc(Nc6ncc7c(C)c(C(C)=O)c(=O)n(C8CCCC8)c7n6)nc5)CC4)C3)CC2)n1` (stereo partly drawn) [CPD-480, 2-((4-(3-(4-(6-((6-acetyl-8-cyclopentyl-5-methyl-7-oxo-7,8-dihydropyrido[2,3-d]pyrimidin-2-yl)amino)pyridin-3-yl)piperazin-1-yl)pyrrolidine-1-carbonyl)cyclohexyl)amino)-N-(2-cyclopropyl-1-methyl-1H-imidazol-4-yl)-6-((methyl-d3)amino)nicotinamide] belongs 10 to 50 nM; to `[2H]C([2H])([2H])Nc1ccc(C(=O)Nc2ccc(N(C)C)nn2)c(NC2CC3(C2)CN(C(=O)CN2CC4(C2)CN(c2ccc(Nc5ncc6c(C)c(C(C)=O)c(=O)n(C7CCCC7)c6n5)nc2)C4)C3)n1` [CPD-489, 2-((2-(2-(6-(6-((6-acetyl-8-cyclopentyl-5-methyl-7-oxo-7,8-dihydropyrido[2,3-d]pyrimidin-2-yl)amino)pyridin-3-yl)-2,6-diazaspiro[3.3]heptan-2-yl)acetyl)-2-azaspiro[3.3]heptan-6-yl)amino)-N-(6-(dimethylamino)pyridazin-3-yl)-6-((methyl-d3)amino)nicotinamide], at least 50 nM; to `CC(=O)c1c(C)c2cnc(Nc3ccc(N4CCC(N(C)C(=O)CN5CC(Nc6nc(NC(C)C)ccc6C(=O)Nc6ccc(N(C)C)nn6)C5)CC4)cn3)nc2n(C2CCCC2)c1=O` [CPD-517, 2-((1-(2-((1-(6-((6-acetyl-8-cyclopentyl-5-methyl-7-oxo-7,8-dihydropyrido[2,3-d]pyrimidin-2-yl)amino)pyridin-3-yl)piperidin-4-yl)(methyl)amino)-2-oxoethyl)azetidin-3-yl)amino)-N-(6-(dimethylamino)pyridazin-3-yl)-6-(isopropylamino)nicotinamide], at least 50 nM.
